From US10449184B2, “Pharmaceutical compositions of therapeutically active compounds” (Agios Pharmaceuticals, Inc., priority 2014, dated 2019)
In brackets after ≈: the same amount, converted by molar mass. Entries after “also recorded” stand apart in the source; their conditions may differ. Marks after values point to notes of the source that are not given here.

What was measured:
[1] = system: advanced hematologic malignancies that harbor an IDH1 mutation (R/R AML); assay: Phase 1 clinical trial: clinical activity assessed by Investigator using IWG AML and MDS criteria; type: in vivo, human
Description: Subjects will undergo radiographic evaluations (CT/MRI), and assessment of bone marrow aspirates and biopsies and peripheral blood to assess the extent of disease, at screening, on Day 15, Day 29 and Day 57, and every 56 days thereafter while on study drug treatment, independent of dose delays and/or dose interruptions, and/or at any time when progression of disease is suspected. Two core tumor biopsies will be obtained at screening, at the time of the first assessment of response, and at the time of disease progression within a window of ±3 days around the planned assessment time point. For patients with acute myelogenous leukemia (AML), response to treatment will be determined by the Investigators based on modified International Working Group (IWG) response criteria.
Disease response to treatment will be assessed through the evaluation of bone marrow biopsies and/or aspirates, along with complete blood counts and examination of peripheral blood films. Subjects will have the extent of their disease assessed and recorded at screening, on Days 15, 29, and 57, every 56 days thereafter while on study drug treatment, independent of dose-delays and/or dose interruptions, and/or at any time when progression of disease is suspected. An assessment also will be conducted at the End of Treatment visit for subjects who discontinue the study due to reasons other than disease progression.
Response to treatment as assessed by the site Investigators using modified IWG (for subjects with hematologic malignancies, such as MDS, MDS/MPN or AML). Two-sided 90% confidence intervals on the response rates will be calculated for each dose level and overall. Data will also be summarized by type of malignancy for subjects in the cohort expansion phase. Descriptive statistics will be used to summarize Ki67 levels from tumor biopsies.

[2] = system: IDH1 mutant R132H xenograft model; assay: 2HG reduction in IDH1 mutant R132H xenograft model; type: in vivo; conditions: single dose (50 mg/kg)
[3] = Phase 1 clinical trial: pharmacokinetics after oral administration; type: in vivo, human; conditions: patients
Method: A full 72-hour PK/PD profile will be conducted: subjects will be required to remain at the study site for 10 hours on Day −3 and return on Days −2, −1, and 1 for 24, 48, and 72 hour samples, respectively.
All subjects will undergo PK/PD assessments over a 10-hour period on both C1D15 and C2D1. Additional pre-dose urine and/or blood sampling will be conducted on C1D8, C1D22, C2D15, C3D1, C3D15, and on Day 1 of all subsequent cycles. Available bone marrow biopsy samples also will be assessed for 2HG levels.
The blood samples will also be used for the determination of 2HG concentrations and for evaluation of cholesterol and 4β-OH-cholesterol levels.
The PK/PD profile from Day −3 through Day 1 is optional for additional subjects enrolled in the dose escalation phase (i.e., for any subjects beyond the 3 initial subjects enrolled in a cohort) and is not required for subjects enrolled in the expansion cohorts.
All subjects will undergo 10-hour PK/PD sampling on C1D15 and C2D1 (i.e., on Days 15 and 29 of twice daily dosing). […] Blood samples also will be drawn on Days 8 and 22 of Cycle 1, Day 15 of Cycle 2, Days 1 and 15 of Cycle 3, and Day 1 of each cycle thereafter; all samples will be obtained prior to dosing. Additionally, one blood sample will be drawn at the End of Treatment Visit.

[4] = Phase 1 clinical trial: safety, adverse events and patient disposition; type: in vivo, human
Description: The study includes a dose escalation phase to determine MTD followed by expansion cohorts to further evaluate the safety and tolerability of the MTD. The dose escalation phase will utilize a standard “3+3” design. […] Each dose cohort will plan to enroll a minimum of 3 subjects. The first 3 subjects enrolled in each dosing cohort during the dose escalation phase of the study will initially receive a single dose of study drug on Day −3 (i.e., 3 days prior to the start of daily dosing) and undergo PK/PD assessments over 72 hours to evaluate drug concentrations and 2HG levels. The next dose of study drug will be on Cycle 1 Day 1 (C1D1) at which time daily dosing will begin. The initial dosing regimen will be twice daily (approximately every 12 hours). If warranted based on the emerging data, an alternative dosing schedule (e.g., once daily or three times daily), including administration of the same total daily dose using different dosing schedules in concurrent cohorts, may be explored. If there are multiple subjects in the screening process at the time the third subject within a cohort begins treatment, up to 2 additional subjects may be enrolled with approval of the Medical Monitor. For these additional subjects, the Day −3 through Day 1 PK/PD assessments are optional following discussion with the Medical Monitor. The planned dose escalation scheme is illustrated in Table 1.
Toxicity severity will be graded according to the National Cancer Institute Common Terminology Criteria for Adverse Events (NCI CTCAE) version 4.03. A DLT is defined as follows. Hematologic includes prolonged myelosuppression, defined as persistence of ≥3 Grade neutropenia or thrombocytopenia (by NCI CTCAE, version 4.03, leukemia-specific criteria, i.e., marrow cellularity <5% on Day 28 or later from the start of study drug without evidence of leukemia) at least 42 days after the initiation of Cycle 1 therapy. Leukemia-specific grading should be used for cytopenias (based on percentage decrease from baseline: 50 to 75%=Grade 3, >75%=Grade 4). All AEs that cannot clearly be determined to be unrelated to Compound 1, or a pharmaceutically acceptable salt thereof will be considered relevant to determining DLTs.
AEs, including determination of DLTs, serious adverse events (SAEs), and AEs leading to discontinuation; safety laboratory parameters; physical examination findings; vital signs; 12-lead ECGs; LVEF; and ECOG PS will be monitored during the clinical study. The severity of AEs will be assessed by the NCI CTCAE, Version 4.03.
Adverse events will be summarized by Medical Dictionary for Regulatory Activities (MedDRA) system organ class and preferred term. Separate tabulations will be produced for all treatment-emergent AEs (TEAEs), treatment-related AEs (those considered by the Investigator as at least possibly drug related), SAEs, discontinuations due to AEs, and AEs of at least Grade 3 severity. By-subject listings will be provided for deaths, SAEs, DLTs, and AEs leading to discontinuation of treatment.

[5] = system: primary human IDH-mutated blast cells; assay: intracellular 2HG in primary blast cells ex vivo; type: cell-based; conditions: 0.5 uM, 1 uM and 5 uM
2HG = assay: Phase 1 clinical trial: plasma 2HG inhibition; type: in vivo, human; conditions: all dose levels
Method: Samples collected for PK assessments also will be used to assess 2HG levels. In addition, subjects will have blood drawn for determination of 2HG levels at the screening assessment.
The 2HG baseline was taken at Day −3 pre-treatment 2HG inhibition estimated based on 2HG pre-treatment level and AUC0-10 hr post treatment. For the 100 mg BID and 300 mg QD Cohorts, 3 to 4 patients were measured per time point and for the 500 mg QD Cohort, 1 to 3 patients were measured per time point.

[6] = rat pharmacokinetics study of Example 4 (oral suspensions); type: in vivo, Sprague Dawley rats; conditions: Sprague Dawley, 200 mg/kg oral suspension in vehicle, plasma
Method: The following three homogenous suspensions of Compound 1 are provided:
Form 2 in vehicle (1% d-alpha-tocopheryl polyethylene glycol 1000 succinate (TPGS):1% HPMCAS in water), an amorphous solid dispersion of 25% w/w Form 2 and 75% w/w HPMCAS-M (Solid Dispersion A) in vehicle, and an amorphous solid dispersion of 25% w/w Form 2 and 75% w/w PVAP (Solid Dispersion B) in vehicle (200 mg/kg in 10 mL/kg).
Each suspension is prepared on the day of dosing, and the Sprague Dawley rats are dosed orally. Serial plasma samples are taken at different time points following dosing. […] PK parameters, including AUC0-72 hr and Cmax, are calculated using WinNonlin software.

[7] = solubility in fasted state simulated intestinal fluid (FASSIF); type: physicochemical; conditions: pH 6.1, fassif, pH of 6.1 at 4 hours

N#Cc1ccnc(N2C(=O)CC[C@H]2C(=O)N(c2cncc(F)c2)[C@H](C(=O)NC2CC(F)(F)C2)c2ccccc2Cl)c1 [Compound 1, (S)—N—((S)-1-(2-chlorophenyl)-2-((3,3-difluorocyclobutyl)amino)-2-oxoethyl)-1-(4-cyanopyridin-2-yl)-N-(5-fluoropyridin-3-yl)-5-oxopyrrolidine-2-carboxamide]
CR (complete response) ([1]; Cohort 1 100 mg BID (n = 4)): 1
Overall response rate (ORR = CR, Marrow CR and PR) ([1]; Cohort 1 100 mg BID (n = 4)): 1/4
CR (complete response) ([1]; Cohort 2 300 mg QD (n = 4)): 1
Overall response rate (ORR = CR, Marrow CR and PR) ([1]; Cohort 2 300 mg QD (n = 4)): 1/4
PD (progressive disease) ([1]; Cohort 2 300 mg QD (n = 4)): 1
CR (complete response) ([1]; Cohort 3 500 mg QD (n = 4)): 1
Marrow CR (≤5% blasts in BM; no hematological recovery) ([1]; Cohort 3 500 mg QD (n = 4)): 2
Overall response rate (ORR = CR, Marrow CR and PR) ([1]; Cohort 3 500 mg QD (n = 4)): 3/4
CR (complete response) ([1]; Cohort 4 800 mg QD (n = 2)): 1
Overall response rate (ORR = CR, Marrow CR and PR) ([1]; Cohort 4 800 mg QD (n = 2)): 2/2
PR (partial response) ([1]; Cohort 4 800 mg QD (n = 2)): 1
CR (complete response) ([1]; Total N = 14): 4
Marrow CR (≤5% blasts in BM; no hematological recovery) ([1]; Total N = 14): 2
Overall response rate (ORR = CR, Marrow CR and PR) ([1]; Total N = 14): 7/14
PD (progressive disease) ([1]; Total N = 14): 1
PR (partial response) ([1]; Total N = 14): 1
blasts in bone marrow ([1]; patient refractory to 7+3, after 2 weeks of therapy): < 5%
response of single patient ([1]; patient, after 2 weeks of therapy, maintained at D28): met the criteria for a full CR
2HG in xenograft [2]: Reduction in 2HG was observed
half-life ([3]; human, plasma): 182 h
drug accumulation [3]: drug accumulation
plasma exposure [3]: high plasma exposure
subjects discontinued study due to an intracranial bleed (SAE, resulted in death) ([4]; 100 mg BID): 1
QT prolongation observed ([4]; 100 mg cohort, patient with history of R BBB): patient population. Other QT prolongations observed: Grade 1 prolonged
subjects who experienced differentiation syndrome (SAE) ([4]; 300 mg QD): 1
DLT (dose limiting toxicity) observed ([4]; 800 mg QD): One DLT (dose limiting toxicity) of grade 3 QT prolongation
subjects who experienced tongue edema and QT prolongation (SAE) ([4]; 800 mg QD): 1
QT prolongation observed ([4]; 800 mg cohort): 300 mg cohort; and Grade 3 prolonged QT (DLT) in 800 mg cohort.
At least 1 adverse event ([4]; All grades): 14 (82) n (%)
Cough ([4]; All grades): 4 (24) n (%)
Diarrhea ([4]; All grades): 3 (18) n (%)
Dyspnea ([4]; All grades): 5 (29) n (%)
Electrocardiogram QT prolonged ([4]; All grades): 3 (18) n (%)
Fatigue ([4]; All grades): 5 (29) n (%)
Febrile neutropenia ([4]; All grades): 3 (18) n (%)
Nausea ([4]; All grades): 5 (29) n (%)
Pyrexia ([4]; All grades): 4 (24) n (%)
Vomiting ([4]; All grades): 4 (24) n (%)
Death ≤28 days after Compound 1 Discontinuation ([4]; All patients (N = 17)): 6
Discontinued due to AE (intracranial hemorrhage) ([4]; All patients (N = 17)): 1** n
Discontinued due to PD (progressive disease) ([4]; All patients (N = 17)): 4 n
Death ≤28 days after Compound 1 Discontinuation ([4]; Cohort 1 100 mg BID (n = 4)): 3
Discontinued due to AE (intracranial hemorrhage) ([4]; Cohort 1 100 mg BID (n = 4)): 1** n
Discontinued due to PD (progressive disease) ([4]; Cohort 1 100 mg BID (n = 4)): 2 n
Death ≤28 days after Compound 1 Discontinuation ([4]; Cohort 2 300 mg QD (n = 4)): 2
Discontinued due to PD (progressive disease) ([4]; Cohort 2 300 mg QD (n = 4)): 1 n
Death ≤28 days after Compound 1 Discontinuation ([4]; Cohort 3 500 mg QD (n = 4)): 1
Discontinued due to PD (progressive disease) ([4]; Cohort 3 500 mg QD (n = 4)): 1 n
At least 1 adverse event ([4]; Grade ≥3): 11 (65) n (%)
Cough ([4]; Grade ≥3): 0 n (%)
Diarrhea ([4]; Grade ≥3): 0 n (%)
Dyspnea ([4]; Grade ≥3): 2 (12) n (%)
Electrocardiogram QT prolonged ([4]; Grade ≥3): 1 (6) n (%)
Fatigue ([4]; Grade ≥3): 1 (6) n (%)
Febrile neutropenia ([4]; Grade ≥3): 3 (18) n (%)
Nausea ([4]; Grade ≥3): 1 (6) n (%)
Pyrexia ([4]; Grade ≥3): 1 (6) n (%)
Vomiting ([4]; Grade ≥3): 0 n (%)
hypotension ([4]; Grade ≥3): Notable grade ≥3 AEs include: hypotension 2 (12%), mental status n (%)
mental status changes ([4]; Grade ≥3): changes 2 (12%), neutropenia 2 (12%). AEs appear typical for this n (%)
neutropenia ([4]; Grade ≥3): changes 2 (12%), neutropenia 2 (12%). AEs appear typical for this n (%)
subjects who experienced serious adverse events ([4]; all cohorts): Eight
intracellular 2HG [5]: reduced intracellular 2HG
plasma levels of 2HG (2HG; 100 mg BID, 300 mg QD or 500 mg QD): reduced to a normal range; also recorded: reduced to normal ranges
plasma 2HG inhibition (2HG; vs Day -3 pre-treatment level, AUC0-10 hr post treatment): up to 98%

N#Cc1ccnc(N2C(=O)CC[C@H]2C(=O)N(c2cncc(F)c2)[C@H](C(=O)NC2CC(F)(F)C2)c2ccccc2Cl)c1 [Form 2, (S)—N—((S)-1-(2-chlorophenyl)-2-((3,3-difluorocyclobutyl)amino)-2-oxoethyl)-1-(4-cyanopyridin-2-yl)-N-(5-fluoropyridin-3-yl)-5-oxopyrrolidine-2-carboxamide]
Cmax [6]: 1600 ng/mL
AUC(0-t) ([6]; read-out: AUC0-72 hr): 21700 ng·h/mL
solubility at 4 h [7]: ~18 µg/mL (≈ 30.9 µM)
